Assay results: patent US20260325538A1, “THERAPY” (priority 2023, published 2026)

Key:
[1] = system: Klebsiella pneumoniae Kpn St147 (NDM-1 and KPC-2); assay: MIC determination of ceftazidime with zinc chelator and avibactam (checkerboard, broth microdilution); format: cell-based; settings: with CAZ and avibactam
From the text: The fractional inhibitory concentration (FIC) is defined as the concentration that kills when used in combination with another agent divided by the concentration that has the same effect when used alone. The FIC index (FICI) for the combination of two agents is the sum of their individual FIC values. […] The European Committee for Antimicrobial Susceptibility Testing (EUCAST) of the European Society of Clinical Microbiology and Infectious Diseases (ESCMID) 2000 adopts the following definitions to determine the susceptibility of bacteria to an antimicrobial agent (see EUCAST Definitive Document E. Def 1.2: Terminology relating to methods for the determination of susceptibility of bacteria to antimicrobial agents. Clin. Microbiol. Infect. 2000; 6(9): 503-508): • FICI value≤0.5; synergy • 0.5<FICI value≤1; additive effect • 1<FICI value≤2; indifferent effect • FICI≥2; antagonistic effect
Antimicrobial susceptibility testing (AST) by broth microdilution was performed according to The European Committee on Antimicrobial Susceptibility Testing. Reading guide for broth microdilution. Version 4.0, 2022 (see: http://www.eucast.org).
Checkerboard 96-well plates (Corning 3788) were made by conducting serial two-fold dilutions of CAZ in cation-adjusted Mueller Hinton II broth (caMHB; Thermo Scientific, T3462), in columns across the microtiter plate (64-0.03 μg/ml). Additionally, avibactam was added to rows 3 to 8 in concentrations of 64, 16, 8, 4, 1 and 0.25 μg/ml, respectively. The zinc chelator was added to the wells of the plate, where applicable. […] The first row in all plates was used as a positive control for CAZ only, and the second row included the zinc chelator in addition to CAZ (no avibactam added to rows 1 or 2). The zinc chelator was added at the indicated concentration to rows 3-8 of plates 2 and 3.
The effect of the combination of zinc chelator/CAZ/avibactam was tested on a clinically isolated Klebsiella pneumoniae Kpn St147 actively constitutionally expressing the two resistance mechanisms NDM-1 and KPC-2 simultaneously. As a negative control, bacteria+CAZ was tested alone. As a positive control, bacteria+CAZ+zinc chelator was used. In Tables 3 and 4, concentrations (μg/ml) of CAZ are given in the top row left to right and avibactam concentrations (μg/ml) are given top to bottom in column 1.
ΣFICI=MICA(combination)/MICA (alone)+MICB(combination)/MICB (alone)+MICC(combination)/MICC (alone)

[2] = system: gram-negative bacteria with MBL, for example Klebsiella pneumoniae, E. coli and Pseudomonas aeruginosa; settings: in combination with meropenem; cited from earlier work

CN(C[C@H](O)[C@@H](O)[C@H](O)[C@H](O)CO)C(=O)c1ccc(CN(Cc2ccccn2)Cc2ccccn2)nc1 [zinc chelator]
FICI Zinc Chelator ([1]; zinc chelator 8 μg/mL): 0.0039 | FICI Zinc Chelator ([1]; zinc chelator 16 μg/mL): 0.0078 | sensitivity of gram-negative bacteria with MBL to meropenem [2]: the sensitivity of these bacteria towards the antibiotic drug is reinstated
